Results on six compounds are retold here after PMC3853373 (Archives of biochemistry and biophysics, 2013).

Where “and” joins values, the source holds several entries; their conditions need not be identical. Equal entries are not always repeated. Where two headings read alike, the source gives them in different places.

As usually defined, the Kd is the concentration at which binding is half-saturated. As a reminder, the kcat is the number of substrate molecules converted per active site and unit of time at saturation.

In assay [1] the target is T1, human PNMT (hPNMT) (Homo sapiens, UniProt P11086).
T1 sequence (P11086 1-282): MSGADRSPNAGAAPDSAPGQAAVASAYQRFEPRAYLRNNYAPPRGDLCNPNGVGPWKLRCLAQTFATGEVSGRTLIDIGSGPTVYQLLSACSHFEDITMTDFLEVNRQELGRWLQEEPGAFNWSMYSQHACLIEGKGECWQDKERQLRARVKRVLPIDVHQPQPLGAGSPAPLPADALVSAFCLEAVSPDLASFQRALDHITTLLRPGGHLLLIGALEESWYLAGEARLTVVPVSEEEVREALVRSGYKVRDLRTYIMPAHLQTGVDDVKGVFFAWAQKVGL
As to the kind of experiment: Determination of inhibition constants and inhibition patterns for hPNMT. The format is biochemical. The following applies: pH 8.0, 30 °C; for Ki: read-out: Kis.

Assay [2] addresses T1, human PNMT (hPNMT). The experiment in a line: pH dependence of hPNMT kinetic parameters and of Ki for SK&F 29661. The following applies: pH 6-10, 30 °C; fit to eq 6.
The target in assay [3] is T1, human PNMT (hPNMT). As to the kind of experiment: Isothermal titration calorimetry of ligand binding to hPNMT. The following applies: for binding to free hPNMT: no AdoMet or AdoHcy present. In general terms: In ITC the heat of successive injections is recorded.
The target of assay [4] is T1, human PNMT (hPNMT). As to the kind of experiment: hPNMT initial velocity studies. Format: biochemical.
In assay [5] the target is T1, human PNMT (hPNMT). The following applies: pH 8.0, 30 °C; ref [30]; cited from earlier work.
Where [6] appears, read: varied substrate AdoMet, fixed PEA 100 μM.
Setting [7] is: varied substrate PEA, fixed AdoMet 5 μM.

With `Nc1ncnc2c1ncn2[C@@H]1O[C@H](CSCC[C@H](N)C(=O)O)[C@@H](O)[C@H]1O` [AdoHcy, S-adenosyl-L-homocysteine], the Ki on human PNMT (hPNMT) [1] (setting [6]) was 0.8 ± 0.04 µM; on human PNMT (hPNMT) [1] (setting [7]), 2.5 ± 0.28 µM. The Kii on human PNMT (hPNMT) [1] (setting [7]) worked out at 1.0 ± 0.02 µM.
Turning to `C[S+](CC[C@H](N)C(=O)[O-])C[C@H]1O[C@@H](n2cnc3c(N)ncnc32)[C@H](O)[C@@H]1O` (stereo partly drawn) [AdoMet, S-adenosyl-L-methionine], at human PNMT (hPNMT) [2], the “pKa2 from LogV/K pH profile” value is recorded as 7.25 and the “pKa3 from LogV/K pH profile” value was 9.15 ± 0.12. This compound had a Kd at human PNMT (hPNMT) [3] of 4.6 ± 0.7 µM.
As to `CNC[C@H](O)c1ccc(O)c(O)c1` [Epinephrine, epinephrine], the “preference for binding in presence of AdoHcy over AdoMet” value on human PNMT (hPNMT) [3] (ITC) was determined as 5 fold. Also, the Kii on human PNMT (hPNMT) [1] (setting [6]) was determined as 22 ± 0.8 µM; on human PNMT (hPNMT) [1] (setting [7]), 51 ± 1.0 µM.
At human PNMT (hPNMT) [3], `NC[C@H](O)c1ccc(O)c(O)c1` [NE, norepinephrine] came in with a Kd of 7.2 ± 0.2 µM. Moreover, at human PNMT (hPNMT) [3] (ITC), the “binding to free hPNMT” value is “did not bind”.
`NCC(O)c1ccc(O)cc1` (stereo not drawn) [Octopamine, octopamine] showed a Kia on human PNMT (hPNMT) [4] (dissociation constant from eq 1, phosphate buffer pH 8.0, 30 °C) of 2.1 ± 0.2 µM. In addition, the “Km lower than that of PEA” value at human PNMT (hPNMT) [4] (ratio of Km values against PEA) stood at 20 fold. The Kd at human PNMT (hPNMT) [3] was 3.3 ± 0.1 µM. Besides, the “binding to free hPNMT” value at human PNMT (hPNMT) [3] (ITC) is given as “did not bind”.
Regarding `NCC(O)c1ccccc1` (stereo not drawn) [PEA, phenylethanolamine], on human PNMT (hPNMT) [2], the “pKa2 from LogV/K pH profile” value is 8.66 and 8.66 ± 0.03; the “pKa3 from LogV/K pH profile” value was 9.26 and 9.26 ± 0.03. Moreover, on human PNMT (hPNMT) [5], the kcat was 0.0473 ± 0.00167 s⁻¹ and the kcat/Ka result was “(2.8 ± 0.2) × 10^4 M^−1 min^−1”. In addition, binding at human PNMT (hPNMT) [3] was put at a Kd of 60 ± 2 µM. Further, the “binding to free hPNMT” value on human PNMT (hPNMT) [3] (ITC) is “did not bind”.
